EP3323415A1, “TREATMENT OF NEURODEGENERATIVE DISEASES” (Institut du Cerveau et de la Moelle Épinière-ICM, priority 2016, dated 2018)

Tested on: midbrain DA (TH^+) neurons
Experiment: Spontaneous dopaminergic (DA) cell death model in midbrain cultures
Format: cell-based, Wistar rat
Settings: chronic treatments for 10 days
Description: Animals were treated in accordance with the Guide for the Care and Use of Laboratory Animals (National Research Council, 1996), European Directive 86/609, and the guidelines of the local institutional animal care and use committee. Cultures were prepared from the ventral mesencephalon of gestational age 15.5 Wistar rat embryos (Janvier Breeding Center, Le Genest St Isle, France). Dissociated cells in suspension obtained by mechanical trituration of midbrain tissue pieces were seeded at a density of 1.2-1.5 10^5 cells/ cm^2 onto tissue culture supports precoated with 1 mg/ml polyethylenimine diluted in borate buffer pH 8.3 as described (Michel PP, et al., J Neurochem. 1997 Oct;69(4):1499-507). The cultures were then maintained in N5 medium supplemented with 5 mM glucose, 5% horse serum, and 0.5% fetal calf serum, except for the first 3 days in vitro (DIV), when the concentration of fetal calf serum was 2.5% to favor initial maturation of the cultures (Guerreiro S, et al., Mol Pharmacol. 2008 Oct;74(4):980-9). They were fed daily by replacing 70% of the medium. […]
We used a model system in which DA cell loss was spontaneous. […] For the spontaneous dopaminergic cell death model, TH^+ neurons were counted while for the neuro-inflammation model, the number of microglial cells was evaluated. […]

Row | Structure (SMILES) | optimal neuroprotective concentrations
1 | Nc1ncnc2c1ncn2[C@@H]1O[C@H](COP(=O)(O)OP(=O)(O)OC[C@H]2O[C@@H]([n+]3cccc(C(=O)[O-])c3)[C@H](O)[C@@H]2O)[C@@H](O)[C@H]1OP(=O)(O)O [compound 1, 1-[(2R,3R,4S,5R)-5-[[[[(2R,3R,4R,5R)-5-(6-aminopurin-9-yl)-3-hydroxy-4-phosphonooxyoxolan-2-yl]methoxy-hydroxyphosphoryl]oxy-hydroxyphosphoryl]oxymethyl]-3,4-dihydroxyoxolan-2-yl]pyridin-1-ium-3-carboxylic acid] | 30 µM
2 | CC(=O)OCOC(=O)c1ccc[n+]([C@@H]2O[C@H](COP(=O)(O)OP(=O)(OCOC(C)=O)OC[C@H]3O[C@@H](n4cnc5c(N)ncnc54)[C@H](OP(=O)(OCOC(C)=O)OCOC(C)=O)[C@@H]3O)[C@@H](O)[C@H]2O)c1 (stereo partly drawn) [compound 2, 1-((2R,3R,4S,5R)-5-((((((acetoxymethoxy)(((2R,3R,4R,5R)-5-(6-amino-9H-purin-9-yl)-4-((bis(acetoxymethoxy)phosphoryl)oxy)-3-hydroxytetrahydrofuran-2-yl)methoxy)phosphoryl)oxy)(hydroxy)phosphoryl)oxy)methyl)-3,4-dihydroxytetrahydrofuran-2-yl)-3-((acetoxymethoxy)carbonyl)pyridin-1-ium] | 1 µM
